Patent publication US11845752B2, “Substituted imidazo[1,5-a]pyrazines for the treatment of hepatitis B” (ALIGOS THERAPEUTICS, INC., priority 2020, dated 2023)
Like-named read-outs stand apart in the source and are kept apart here.

Test system: HBV
Assay: HBV-DNA antiviral assay using HepG2.117 cells (intracellular HBV DNA by qPCR)
Assay type: cell-based, HBV genotype D
Conditions: HBV DNA inhibition, 3 days incubation
How it was run: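 HepG2.117 cells (stably integrated genotype D HBV, Tet-off) seeded without doxycycline to induce pgRNA, then treated next day with 9 concentrations (4-fold dilutions, 2% DMSO) for 3 days at 37 °C. Intracellular HBV DNA quantified by qPCR against standard curve, viability by ATP content; inhibition relative to DMSO control, EC50/EC90/CC50 by non-linear regression.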

[1] = Hepatitis B virus, HepG2.117, 72 h, read-out: EC50

Question: For `CC1Cn2c(c(C(=O)NCc3ccccc3-c3ccncn3)n(-c3ccc(-n4cccn4)cc3)c2=O)CN1C(=O)c1ccc(Br)c(Cl)c1` (single isomer, unassigned) [Compound 4b, 7-(4-bromo-3-chloro-benzoyl)-6-methyl-3-oxo-2-(4-pyrazol-1-ylphenyl)-N-[(2-pyrimidin-4-ylphenyl)methyl]-6,8-dihydro-5H-imidazo[1,5-a]pyrazine-1-carboxamide], which EC50 (listed as 4h) is on record?
Answer: Its EC50 is less than 50 nM.

Question: How did the EC50 [1] turn out when `Cc1nnc(-c2ccccc2CNC(=O)c2c3n(c(=O)n2-c2ccc(OC4CC4)cc2)CC(C)N(C(=O)c2ccc(Br)c(C#N)c2)C3)o1` (single isomer, unassigned) [Compound 5a, (6S*)-7-(4-bromo-3-cyano-benzoyl)-2-[4-(cyclopropoxy)phenyl]-6-methyl-N-[[2-(5-methyl-1,3,4-oxadiazol-2-yl)phenyl]methyl]-3-oxo-6,8-dihydro-5H-imidazo[1,5-a]pyrazine-1-carboxamide] was run?
Answer: Its EC50 is 500 to 5000 nM.

Question: How did the EC50 [1] turn out when `Cc1cnn(-c2ccccc2CNC(=O)c2c3n(c(=O)n2-c2ccc(OC4CC4)cc2)CC(C)N(C(=O)c2ccc(Br)c(Cl)c2)C3)c1` (single isomer, unassigned) [Compound 6a, 7-(4-bromo-3-chloro-benzoyl)-2-[4-(cyclopropoxy)phenyl]-6-methyl-N-[[2-(4-methylpyrazol-1-yl)phenyl]methyl]-3-oxo-6,8-dihydro-5H-imidazo[1,5-a]pyrazine-1-carboxamide] was run?
Answer: Its EC50 is 50 to 500 nM.

Question: How did the EC50 (read-out: EC50) turn out when `Cc1cnn(-c2ccccc2CNC(=O)c2c3n(c(=O)n2-c2ccc(OC4CC4)cc2)CC(C)N(C(=O)c2ccc(Br)c(Cl)c2)C3)c1` (single isomer, unassigned) [Compound 6b, 7-(4-bromo-3-chloro-benzoyl)-2-[4-(cyclopropoxy)phenyl]-6-methyl-N-[[2-(4-methylpyrazol-1-yl)phenyl]methyl]-3-oxo-6,8-dihydro-5H-imidazo[1,5-a]pyrazine-1-carboxamide] was run?
Answer: Its EC50 is less than 50 nM.

Question: Which EC50 [1] does the source give for `CC1Cn2c(c(C(=O)NCc3ccccc3-c3cccnn3)n(-c3ccc(OC4CC4)cc3)c2=O)CN1C(=O)c1ccc(Br)c(Cl)c1` (single isomer, unassigned) [Compound 7a, 7-(4-bromo-3-chloro-benzoyl)-2-[4-(cyclopropoxy)phenyl]-6-methyl-3-oxo-N-[(2-pyridazin-3-ylphenyl)methyl]-6,8-dihydro-5H-imidazo[1,5-a]pyrazine-1-carboxamide] here?
Answer: The EC50 was 50 to 500 nM.

Question: How did the EC50 (read-out: EC50) turn out when `CC1Cn2c(c(C(=O)NCc3ccccc3-c3cccnn3)n(-c3ccc(OC4CC4)cc3)c2=O)CN1C(=O)c1ccc(Br)c(Cl)c1` (single isomer, unassigned) [Compound 7b, 7-(4-bromo-3-chloro-benzoyl)-2-[4-(cyclopropoxy)phenyl]-6-methyl-3-oxo-N-[(2-pyridazin-3-ylphenyl)methyl]-6,8-dihydro-5H-imidazo[1,5-a]pyrazine-1-carboxamide] was run?
Answer: Its EC50 is less than 50 nM.

Question: For `CC1Cn2c(c(C(=O)NCc3ccccc3-c3cc(N)ncn3)n(-c3ccc(OC4CC4)cc3)c2=O)CN1C(=O)c1ccc(Br)c(Cl)c1` (single isomer, unassigned) [Compound 8a, N-[[2-(6-aminopyrimidin-4-yl)phenyl]methyl]-7-(4-bromo-3-chloro-benzoyl)-2-[4-(cyclopropoxy)phenyl]-6-methyl-3-oxo-6,8-dihydro-5H-imidazo[1,5-a]pyrazine-1-carboxamide], which EC50 [1] is on record?
Answer: Its EC50 is 50 to 500 nM.

Question: Which EC50 (read-out: EC50) does the source give for `CC1Cn2c(c(C(=O)NCc3ccccc3-c3cc(N)ncn3)n(-c3ccc(OC4CC4)cc3)c2=O)CN1C(=O)c1ccc(Br)c(Cl)c1` (single isomer, unassigned) [Compound 8b, N-[[2-(6-aminopyrimidin-4-yl)phenyl]methyl]-7-(4-bromo-3-chloro-benzoyl)-2-[4-(cyclopropoxy)phenyl]-6-methyl-3-oxo-6,8-dihydro-5H-imidazo[1,5-a]pyrazine-1-carboxamide] here?
Answer: The EC50 was less than 50 nM.

Question: `CC1Cn2c(c(C(=O)NCc3ccccc3-c3ccncn3)n(-c3ccc(OC4CC4)cc3)c2=O)CN1C(=O)c1ccc(Br)c(Cl)c1` (single isomer, unassigned) [Compound 9a, 7-(4-bromo-3-chloro-benzoyl)-2-[4-(cyclopropoxy)phenyl]-6-methyl-3-oxo-N-[(2-pyrimidin-4-ylphenyl)methyl]-6,8-dihydro-5H-imidazo[1,5-a]pyrazine-1-carboxamide] was tested. Which EC50 [1] did it give?
Answer: The EC50 was 50 to 500 nM.

Question: With `CC1Cn2c(c(C(=O)NCc3ccccc3-c3ccncn3)n(-c3ccc(OC4CC4)cc3)c2=O)CN1C(=O)c1ccc(Br)c(Cl)c1` (single isomer, unassigned) [Compound 9b, 7-(4-bromo-3-chloro-benzoyl)-2-[4-(cyclopropoxy)phenyl]-6-methyl-3-oxo-N-[(2-pyrimidin-4-ylphenyl)methyl]-6,8-dihydro-5H-imidazo[1,5-a]pyrazine-1-carboxamide] as the molecule, how does the EC50 (read-out: EC50) read?
Answer: The EC50 was less than 50 nM.

Question: `CC1Cn2c(c(C(=O)NCc3ccccc3-c3ccc(N)nn3)n(-c3ccc(OC4CC4)cc3)c2=O)CN1C(=O)c1ccc(Br)c(Cl)c1` (single isomer, unassigned) [Compound 10a, N-[[2-(6-aminopyridazin-3-yl)phenyl]methyl]-7-(4-bromo-3-chloro-benzoyl)-2-[4-(cyclopropoxy)phenyl]-6-methyl-3-oxo-6,8-dihydro-5H-imidazo[1,5-a]pyrazine-1-carboxamide] was tested. Which EC50 (read-out: EC50) did it give?
Answer: The EC50 was 500 to 5000 nM.

Question: For `CC1Cn2c(c(C(=O)NCc3ccccc3-c3ccc(N)nn3)n(-c3ccc(OC4CC4)cc3)c2=O)CN1C(=O)c1ccc(Br)c(Cl)c1` (single isomer, unassigned) [Compound 10b, N-[[2-(6-aminopyridazin-3-yl)phenyl]methyl]-7-(4-bromo-3-chloro-benzoyl)-2-[4-(cyclopropoxy)phenyl]-6-methyl-3-oxo-6,8-dihydro-5H-imidazo[1,5-a]pyrazine-1-carboxamide], which EC50 (read-out: EC50) is on record?
Answer: Its EC50 is 50 to 500 nM.

Question: `CC1Cn2c(c(C(=O)NCc3ccccc3-c3ccnc(N)n3)n(-c3ccc(OC4CC4)cc3)c2=O)CN1C(=O)c1ccc(Br)c(Cl)c1` (single isomer, unassigned) [Compound 11a, N-[[2-(2-aminopyrimidin-4-yl)phenyl]methyl]-7-(4-bromo-3-chloro-benzoyl)-2-[4-(cyclopropoxy)phenyl]-6-methyl-3-oxo-6,8-dihydro-5H-imidazo[1,5-a]pyrazine-1-carboxamide] was tested. Which EC50 [1] did it give?
Answer: Its EC50 is less than 50 nM.

Question: For `CC1Cn2c(c(C(=O)NCc3ccccc3-c3ccnc(N)n3)n(-c3ccc(OC4CC4)cc3)c2=O)CN1C(=O)c1ccc(Br)c(Cl)c1` (single isomer, unassigned) [Compound 11b, N-[[2-(2-aminopyrimidin-4-yl)phenyl]methyl]-7-(4-bromo-3-chloro-benzoyl)-2-[4-(cyclopropoxy)phenyl]-6-methyl-3-oxo-6,8-dihydro-5H-imidazo[1,5-a]pyrazine-1-carboxamide], which EC50 (read-out: EC50) is on record?
Answer: The EC50 was 50 to 500 nM.

Question: With `Cc1cc(C(=O)N2Cc3c(C(=O)NCc4ccccc4-c4ccncn4)n(-c4ccc(OC5CC5)cc4)c(=O)n3CC2C)ccc1Br` (single isomer, unassigned) [Compound 12a, 7-(4-bromo-3-methyl-benzoyl)-2-[4-(cyclopropoxy)phenyl]-6-methyl-3-oxo-N-[(2-pyrimidin-4-ylphenyl)methyl]-6,8-dihydro-5H-imidazo[1,5-a]pyrazine-1-carboxamide] as the molecule, how does the EC50 [1] read?
Answer: The EC50 was 50 to 500 nM.

Question: `Cc1cc(C(=O)N2Cc3c(C(=O)NCc4ccccc4-c4ccncn4)n(-c4ccc(OC5CC5)cc4)c(=O)n3CC2C)ccc1Br` (single isomer, unassigned) [Compound 12b, 7-(4-bromo-3-methyl-benzoyl)-2-[4-(cyclopropoxy)phenyl]-6-methyl-3-oxo-N-[(2-pyrimidin-4-ylphenyl)methyl]-6,8-dihydro-5H-imidazo[1,5-a]pyrazine-1-carboxamide] was tested. Which EC50 (read-out: EC50) did it give?
Answer: The EC50 was less than 50 nM.

Question: With `CC1Cn2c(c(C(=O)NCc3ccccc3-c3ccncn3)n(-c3ccc(OC4CC4)cc3)c2=O)CN1C(=O)c1ccc(Br)c(C(F)(F)F)c1` (single isomer, unassigned) [Compound 13a, 7-[4-bromo-3-(trifluoromethyl)benzoyl]-2-[4-(cyclopropoxy)phenyl]-6-methyl-3-oxo-N-[(2-pyrimidin-4-ylphenyl)methyl]-6,8-dihydro-5H-imidazo[1,5-a]pyrazine-1-carboxamide] as the molecule, how does the EC50 [1] read?
Answer: The EC50 was 50 to 500 nM.

Question: With `CC1Cn2c(c(C(=O)NCc3ccccc3-c3ccncn3)n(-c3ccc(OC4CC4)cc3)c2=O)CN1C(=O)c1ccc(Br)c(C(F)(F)F)c1` (single isomer, unassigned) [Compound 13b, 7-[4-bromo-3-(trifluoromethyl)benzoyl]-2-[4-(cyclopropoxy)phenyl]-6-methyl-3-oxo-N-[(2-pyrimidin-4-ylphenyl)methyl]-6,8-dihydro-5H-imidazo[1,5-a]pyrazine-1-carboxamide] as the molecule, how does the EC50 (read-out: EC50) read?
Answer: The EC50 was less than 50 nM.

Question: Which EC50 [1] does the source give for `CC1Cn2c(c(C(=O)NCc3ccccc3-c3ccncn3)n(-c3ccc(OC4CC4)cc3)c2=O)CN1C(=O)c1ccc(Br)c(C(F)F)c1` (single isomer, unassigned) [Compound 16a, 7-[4-bromo-3-(difluoromethyl)benzoyl]-2-[4-(cyclopropoxy)phenyl]-6-methyl-3-oxo-N-[(2-pyrimidin-4-ylphenyl)methyl]-6,8-dihydro-5H-imidazo[1,5-a]pyrazine-1-carboxamide] here?
Answer: The EC50 was 50 to 500 nM.

Question: For `CC1Cn2c(c(C(=O)NCc3ccccc3-c3ccncn3)n(-c3ccc(OC4CC4)cc3)c2=O)CN1C(=O)c1ccc(Br)c(C(F)F)c1` (single isomer, unassigned) [Compound 16b, 7-[4-bromo-3-(difluoromethyl)benzoyl]-2-[4-(cyclopropoxy)phenyl]-6-methyl-3-oxo-N-[(2-pyrimidin-4-ylphenyl)methyl]-6,8-dihydro-5H-imidazo[1,5-a]pyrazine-1-carboxamide], which EC50 (read-out: EC50) is on record?
Answer: The EC50 was less than 50 nM.

Question: How did the EC50 [1] turn out when `COc1cnn(-c2ccccc2CNC(=O)c2c3n(c(=O)n2-c2ccc(OC4CC4)cc2)CC(C)N(C(=O)c2ccc(Br)c(Cl)c2)C3)c1` (single isomer, unassigned) [Compound 17a, 7-(4-bromo-3-chloro-benzoyl)-2-[4-(cyclopropoxy)phenyl]-N-[[2-(4-methoxypyrazol-1-yl)phenyl]methyl]-6-methyl-3-oxo-6,8-dihydro-5H-imidazo[1,5-a]pyrazine-1-carboxamide] was run?
Answer: The EC50 was 50 to 500 nM.
